{"source": "patent US8163921B2", "about": "“Hepatitis C virus inhibitors” (Bristol-Myers Squibb Company, priority 2008, dated 2012)", "key": {"[1]": {"molecular_target": "T1, HCV NS3/4A protease complex, H77 strain (Hepatitis C virus genotype 1a, UniProt P27958, C1454S/C1711G)", "T1 construct": "DNA encoding the recombinant HCV NS3/4A protease complex (amino acids 1027 to 1711) for these strains; inferred from Ni-NTA purification and the pET21b vector; made in house; host or cells: Escherichia coli BL21 (DE3)", "T1 sequence (P27958 1027-1711 C1454S/C1711G, one chain of several)": "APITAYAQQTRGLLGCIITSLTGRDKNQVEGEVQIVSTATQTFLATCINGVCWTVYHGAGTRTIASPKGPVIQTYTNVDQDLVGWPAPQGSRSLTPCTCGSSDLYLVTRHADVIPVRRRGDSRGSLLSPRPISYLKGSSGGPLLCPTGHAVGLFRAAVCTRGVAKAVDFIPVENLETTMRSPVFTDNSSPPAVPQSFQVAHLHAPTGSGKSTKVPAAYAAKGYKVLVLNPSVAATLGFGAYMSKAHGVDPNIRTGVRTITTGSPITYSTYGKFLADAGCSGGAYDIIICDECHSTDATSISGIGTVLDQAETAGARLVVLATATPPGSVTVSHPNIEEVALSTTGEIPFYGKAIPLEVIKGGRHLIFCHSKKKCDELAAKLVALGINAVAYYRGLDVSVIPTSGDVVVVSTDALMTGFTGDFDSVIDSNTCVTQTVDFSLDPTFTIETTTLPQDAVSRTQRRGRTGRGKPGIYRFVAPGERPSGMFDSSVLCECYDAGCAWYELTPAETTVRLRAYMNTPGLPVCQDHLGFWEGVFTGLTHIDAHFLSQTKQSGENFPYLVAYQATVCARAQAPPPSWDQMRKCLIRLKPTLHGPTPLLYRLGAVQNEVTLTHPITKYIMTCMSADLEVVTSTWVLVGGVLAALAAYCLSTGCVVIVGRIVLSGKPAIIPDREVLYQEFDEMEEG", "assay": "FRET peptide assay to monitor HCV NS3/4A proteolytic activity (H77 strain)", "type": "biochemical, HCV genotype 1a", "conditions": "read-out: IC50, H177 strain", "excerpt": "(§1) HCV NS3 protease complexes, derived from the BMS strain, H77 strain or J4L6S strain, were generated, as described below. These purified recombinant proteins were generated for use in a homogeneous assay (see below) to provide an indication of how effective compounds of the present disclosure would be in inhibiting HCV NS3 proteolytic activity.\n(§2) Serum from an HCV-infected patient was obtained from Dr. T. Wright, San Francisco Hospital. An engineered full-length cDNA (compliment deoxyribonucleic acid) template of the HCV genome (BMS strain) was constructed from DNA fragments obtained by reverse transcription-PCR (RT-PCR) of serum RNA (ribonucleic acid) and using primers selected on the basis of homology between other genotype 1a strains. From the determination of the entire genome sequence, a genotype 1a was assigned to the HCV isolate according to the classification of Simmonds et al. (See P Simmonds, K A Rose, S Graham, S W Chan, F McOmish, B C Dow, E A Follett, P L Yap and H Marsden, J. Clin. Microbiol., 31(6), 1493-1503 (1993)). […]"}, "[2]": {"molecular_target": "T2, HCV NS3/4A protease complex, J4L6S strain (Hepatitis C virus genotype 1b, UniProt O92972, C1454S/C1711G)", "T2 construct": "DNA encoding the recombinant HCV NS3/4A protease complex (amino acids 1027 to 1711) for these strains; inferred from Ni-NTA purification and the pET21b vector; made in house; host or cells: Escherichia coli BL21 (DE3)", "T2 sequence (O92972 1027-1711 C1454S/C1711G, one chain of several)": "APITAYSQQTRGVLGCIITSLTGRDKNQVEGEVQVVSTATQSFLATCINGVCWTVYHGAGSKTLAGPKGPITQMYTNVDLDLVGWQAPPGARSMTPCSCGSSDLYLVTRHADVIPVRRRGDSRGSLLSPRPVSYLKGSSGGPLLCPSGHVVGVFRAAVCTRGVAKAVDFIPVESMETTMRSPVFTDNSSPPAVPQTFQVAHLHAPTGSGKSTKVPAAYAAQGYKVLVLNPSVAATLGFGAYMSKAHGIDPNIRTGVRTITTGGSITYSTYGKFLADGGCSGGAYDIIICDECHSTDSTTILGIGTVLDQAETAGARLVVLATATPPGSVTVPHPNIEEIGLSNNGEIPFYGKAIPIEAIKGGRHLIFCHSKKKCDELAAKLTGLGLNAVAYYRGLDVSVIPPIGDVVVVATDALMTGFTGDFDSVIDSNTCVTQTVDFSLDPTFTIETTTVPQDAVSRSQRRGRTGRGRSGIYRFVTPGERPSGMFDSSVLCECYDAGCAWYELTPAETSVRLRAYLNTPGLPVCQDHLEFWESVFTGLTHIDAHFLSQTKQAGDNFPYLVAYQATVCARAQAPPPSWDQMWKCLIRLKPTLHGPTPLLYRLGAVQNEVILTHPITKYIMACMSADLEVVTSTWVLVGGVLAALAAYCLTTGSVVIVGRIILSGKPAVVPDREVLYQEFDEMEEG", "assay": "FRET peptide assay to monitor HCV NS3/4A proteolytic activity (J4L6S strain)", "type": "biochemical, HCV genotype 1b", "conditions": "published J4L6S strain", "excerpt": "as §1, §2"}, "[3]": {"molecular_target": "T3, porcine pancreatic elastase (PPE) (Sus scrofa, UniProt P00772)", "T3 construct": "purchased Sigma, EMDbiosciences", "T3 sequence (P00772 27-266)": "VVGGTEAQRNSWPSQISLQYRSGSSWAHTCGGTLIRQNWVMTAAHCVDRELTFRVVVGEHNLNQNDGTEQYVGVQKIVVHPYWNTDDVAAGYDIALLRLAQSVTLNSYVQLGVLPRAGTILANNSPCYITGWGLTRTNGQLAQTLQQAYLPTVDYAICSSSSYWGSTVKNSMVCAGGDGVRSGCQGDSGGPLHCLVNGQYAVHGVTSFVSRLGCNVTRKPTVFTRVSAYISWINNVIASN", "assay": "Specificity assay, PPE", "type": "biochemical", "conditions": "read-out: PPE activity in the specificity assays", "description": "(§3) The specificities of compounds of the present disclosure were determined against a variety of serine proteases: human neutrophil elastase (HNE), porcine pancreatic elastase (PPE) and human pancreatic chymotrypsin and one cysteine protease: human liver cathepsin B. In all cases a 96-well plate format protocol using a fluorometric Amino-Methyl-Coumarin (AMC) substrate specific for each enzyme was used as described previously (PCT Patent Application No. WO 00/09543) with some modifications to the serine protease assays. All enzymes were purchased from Sigma, EMDbiosciences while the substrates were from Bachem, Sigma and EMDbiosciences.\n(§4) Compound concentrations varied from 100 to 0.4 μM depending on their potency. The enzyme assays were each initiated by addition of substrate to enzyme-inhibitor pre-incubated for 10 min at room temperature and hydrolysis to 15% conversion as measured on cytofluor.\n50 mM Tris-HCl, pH 8.0, 50 mM NaCl, 0.1 mM EDTA, 3% DMSO, 0.02% Tween-20, 5 μM succ-AAPV-AMC and 20 nM HNE or 8 nM PPE;\n(§5) The percentage of inhibition was calculated using the formula: [1−((UVinh−UVblank)/(UVctl−UVblank))]×100\n(§6) A non-linear curve fit was applied to the inhibition-concentration data, and the 50% effective concentration (IC50) was calculated by the use of Excel XLfit software."}, "[4]": {"system": "human pancreatic chymotrypsin", "assay": "Specificity assay, chymotrypsin", "type": "biochemical", "conditions": "read-out: Chymotrypsin activity in the specificity assays", "description": "as §3, §4\n50 mM Tris(hydroxymethyl)aminomethane hydrochloride (Tris-HCl) pH 8, 0.5 M Sodium Sulfate (Na2SO4), 50 mM NaCl, 0.1 mM EDTA, 3% DMSO, 0.01% Tween-20 with 5 μM LLVY-AMC and 1 nM Chymotrypsin.\nas §5, §6"}}, "data": [{"smiles": "C=C[C@@H]1C[C@]1(NC(=O)[C@@H]1C[C@@H](Oc2ncc(OC)c3ccc(Cl)cc23)CN1C(=O)[C@@H](Nc1nc(-c2cccc(OC(F)(F)F)c2)cs1)C(C)(C)C)C(=O)NS(=O)(=O)C1CC1", "note": "[Example 68]", "values": [{"measurement": "IC50", "setting": "[1]", "result": 1.9, "unit": "nM"}, {"measurement": "IC50", "setting": "[2]", "result": 0.9, "unit": "nM"}, {"measurement": "IC50", "setting": "[3]", "result": "> 50000", "unit": "nM"}, {"measurement": "IC50", "setting": "[4]", "result": 3000, "unit": "nM"}]}]}
